Source: the NIST ThermoML archive (doi:10.1021/je0500734)

Columns and labels:
[1] = 101.33 kPa, Liquid; for speed of sound: acoustic time of flight gauge
[2] = xn = mol fraction of the nth substance listed; settings: 101.33 kPa, Liquid; for speed of sound: acoustic time of flight gauge

[2H]C([2H])([2H])[N+](=O)[O-] [deuteronitromethane]
[1]
Settings | kinematic viscosity [m2/s] | mass density [kg/m3] | speed of sound [m/s] | viscosity [mPa·s]
293.15 K | 6.05e-07 | 1194.74 | 1291.1 | –
295.15 K | 5.81e-07 | 1190.43 | 1283.2 | –
298.15 K | 5.7e-07 | 1187.71 | 1271.3 | –
300.15 K | 5.49e-07 | 1184.73 | 1263.3 | –
303.15 K | 5.26e-07 | 1181.86 | 1251.4 | –
303.5 K | 6.27e-07 | 1180.03 | – | 0.6274
305.15 K | 5.13e-07 | 1178.3 | 1243.5 | –
307.5 K | 5.82e-07 | 1172.08 | – | 0.5819
308.15 K | 4.92e-07 | 1173.28 | 1231.6 | –

[2H]C([2H])([2H])[N+](=O)[O-] [deuteronitromethane] + CCCCCO
[2]
Settings | mass density, 303.5 K [kg/m3] | mass density, 307.5 K [kg/m3] | viscosity, 303.5 K [mPa·s] | viscosity, 307.5 K [mPa·s]
x1 = 0.08 | 823.07 | 819.05 | – | –
x1 = 0.103 | – | – | 2.46 | 2.158
x1 = 0.178 | 843.08 | 838.92 | – | –
x1 = 0.206 | – | – | 2.16 | 1.82
x1 = 0.245 | 858.21 | 853.8 | – | –
x1 = 0.302 | – | – | 1.796 | 1.517
x1 = 0.351 | 883.03 | 878.4 | – | –
x1 = 0.401 | 896.26 | 891.53 | – | –
x1 = 0.418 | – | – | 1.447 | 1.251
x1 = 0.49 | 922.6 | 917.6 | – | –
x1 = 0.502 | – | – | 1.24 | 1.077
x1 = 0.598 | – | – | 1.069 | 0.9159
x1 = 0.615 | 966.2 | 960.5 | 1.033 | 0.8939
x1 = 0.644 | – | – | 1.026 | 0.8578
x1 = 0.669 | 988.3 | 982.16 | – | –
x1 = 0.749 | 1024.62 | 1018.46 | – | –
x1 = 0.758 | – | – | 0.7821 | 0.7064
x1 = 0.801 | – | – | 0.7859 | 0.6878
x1 = 0.86 | 1084.42 | 1077.9 | – | –
x1 = 0.904 | – | – | 0.6496 | 0.5971
x1 = 0.959 | 1149.88 | 1142.39 | – | –
x1 = 1 | 1180.03 | 1172.08 | 0.6274 | 0.5819

C[N+](=O)[O-] [nitromethane]
[1]
Settings | kinematic viscosity [m2/s] | mass density [kg/m3] | speed of sound [m/s] | viscosity [mPa·s]
293.15 K | 6.01e-07 | 1137.21 | 1337.6 | –
295.15 K | 5.77e-07 | 1133.14 | 1329.5 | –
298.15 K | 5.62e-07 | 1130.42 | 1317.4 | –
300.15 K | 5.47e-07 | 1127.55 | 1309.4 | –
301.15 K | – | 1126.24 | 1305.3 | 0.6091
301.3 K | – | 1126.04 | – | 0.6074
303.15 K | 5.25e-07 | 1123.49 | 1297.3 | –
305.15 K | 5.1e-07 | 1120.82 | 1289.2 | –
306.15 K | – | 1119.36 | 1285.2 | 0.5636
306.3 K | – | 1119.15 | – | 0.5623
308.15 K | 4.89e-07 | 1116.54 | 1277.1 | –

C[N+](=O)[O-] [nitromethane] + CCCCCO
[2]
Settings | mass density [kg/m3] | speed of sound [m/s] | viscosity [mPa·s]
301.15 K, x1 = 0.065 | 818.89 | – | –
301.15 K, x1 = 0.099 | – | 1258.1 | –
301.15 K, x1 = 0.113 | – | – | 2.379
301.15 K, x1 = 0.127 | 828.49 | – | –
301.15 K, x1 = 0.186 | 838.83 | – | –
301.15 K, x1 = 0.202 | – | 1252.1 | –
301.15 K, x1 = 0.203 | – | – | 2.119
301.15 K, x1 = 0.26 | 852.95 | – | –
301.15 K, x1 = 0.302 | – | 1248.3 | –
301.15 K, x1 = 0.31 | 863.38 | – | –
301.15 K, x1 = 0.314 | – | – | 1.743
301.15 K, x1 = 0.398 | 883.3 | – | 1.487
301.15 K, x1 = 0.401 | – | 1245.4 | –
301.15 K, x1 = 0.469 | – | – | 1.231
301.15 K, x1 = 0.502 | – | 1242.7 | –
301.15 K, x1 = 0.503 | 910.3 | – | –
301.15 K, x1 = 0.516 | – | – | 1.111
301.15 K, x1 = 0.54 | 920.98 | – | –
301.15 K, x1 = 0.616 | 944.27 | – | –
301.15 K, x1 = 0.619 | – | 1243.9 | –
301.15 K, x1 = 0.62 | – | – | 0.9425
301.15 K, x1 = 0.699 | 973.7 | – | –
301.15 K, x1 = 0.701 | – | 1247 | –
301.15 K, x1 = 0.752 | – | – | 0.7812
301.15 K, x1 = 0.753 | 994.05 | – | –
301.15 K, x1 = 0.801 | – | – | 0.7348
301.15 K, x1 = 0.802 | 1016.76 | 1258.9 | –
301.15 K, x1 = 0.824 | – | – | 0.679
301.15 K, x1 = 0.849 | – | – | 0.673
301.15 K, x1 = 0.902 | – | 1281.2 | –
301.15 K, x1 = 0.911 | 1070.91 | – | –
301.15 K, x1 = 0.934 | – | – | 0.6149
301.15 K, x1 = 1 | 1126.24 | 1305.3 | 0.6091
306.15 K, x1 = 0.065 | 815.14 | – | –
306.15 K, x1 = 0.099 | – | 1240.6 | –
306.15 K, x1 = 0.113 | – | – | 2.009
306.15 K, x1 = 0.127 | 824.47 | – | –
306.15 K, x1 = 0.186 | 834.67 | – | –
306.15 K, x1 = 0.202 | – | 1234.6 | –
306.15 K, x1 = 0.203 | – | – | 1.744
306.15 K, x1 = 0.26 | 848.61 | – | –
306.15 K, x1 = 0.302 | – | 1230.6 | –
306.15 K, x1 = 0.31 | 858.74 | – | –
306.15 K, x1 = 0.314 | – | – | 1.473
306.15 K, x1 = 0.398 | 878.5 | – | 1.282
306.15 K, x1 = 0.401 | – | 1227.7 | –
306.15 K, x1 = 0.469 | – | – | 1.093
306.15 K, x1 = 0.502 | – | 1225.5 | –
306.15 K, x1 = 0.503 | 905.13 | – | –
306.15 K, x1 = 0.516 | – | – | 0.9447
306.15 K, x1 = 0.54 | 915.83 | – | –
306.15 K, x1 = 0.616 | 939 | – | –
306.15 K, x1 = 0.619 | – | 1226.6 | –
306.15 K, x1 = 0.62 | – | – | 0.7854
306.15 K, x1 = 0.699 | 967.99 | – | –
306.15 K, x1 = 0.701 | – | 1230.2 | –
306.15 K, x1 = 0.752 | – | – | 0.6945
306.15 K, x1 = 0.753 | 987.94 | – | –
306.15 K, x1 = 0.801 | – | – | 0.6634
306.15 K, x1 = 0.802 | 1010.21 | 1241.7 | –
306.15 K, x1 = 0.824 | – | – | 0.6288
306.15 K, x1 = 0.849 | – | – | 0.6161
306.15 K, x1 = 0.902 | – | 1262.1 | –
306.15 K, x1 = 0.911 | 1064.52 | – | –
306.15 K, x1 = 0.934 | – | – | 0.5661
306.15 K, x1 = 1 | 1119.36 | 1285.2 | 0.5636
